These are literature values, as cited in patent publication US6794359B2, “Vertebrate intestinal protein which absorbs cholesterol, its inhibitors and mehtod of identifying the same” (Aventis Pharma Deutschland GmbH, priority 2000, dated 2004).

Like-named read-outs stand apart in the source and are kept apart here.

The subject of data set [1] is intestinal cholesterol absorption. The conditions noted are these: humans.
For data set [2] the test system is unchanged. The conditions noted are these: hamsters.
The test system is the same in data set [3]. The conditions noted are these: dogs.
Data set [4] has the same test system. The note with it: rhesus monkeys.
Data set [5] shares this test system. The conditions noted are these: rabbits.

For `CC[C@H](CC[C@@H](C)[C@H]1CC[C@H]2[C@@H]3CC=C4C[C@@H](O)CC[C@]4(C)[C@H]3CC[C@]12C)C(C)C` [β-sitosterol], the “inhibition of cholesterol absorption” value in data set [1] (background statement) is given as “an inhibition of cholesterol absorption”.

Turning to `O=C1[C@H](CC[C@H](O)c2ccc(F)cc2)[C@@H](c2ccc(O)cc2)N1c1ccc(F)cc1` [SCH 58235], the “increase of effect on direct comparison” value in data set [2] (direct comparison with SCH 48461) is on record as 50 fold.

On to `COc1ccc([C@@H]2[C@@H](CCCc3ccccc3)C(=O)N2c2ccc(OC)cc2)cc1` [SCH 48461], for which the “inhibition of intestinal cholesterol absorption” value in data set [3], in data set [4], in data set [1], in data set [5] and in data set [2] was “very efficiently inhibits” each time.
